The values below come from ChEMBL document CHEMBL1151262, “Labdane diterpenes from Aster spathulifolius and their cytotoxic effects on human cancer cell lines” (2005).

Values after ≈ are worked out from the molar mass of the structure shown.

Common to all, as to assay type: functional
Common to all, as to conditions: read-out: ED50 (the source's name)

One experiment relates to A549. The experiment in a line: Cytotoxicity against human A549 cells by SRB method. For orientation: In SRB staining, fixed cells bind dye roughly in proportion to their protein.
The next experiment deals with SK-OV-3. The experiment in a line: Cytotoxicity against human SKOV3 cells by SRB method.
In another experiment the test system is SK-MEL-2. The experiment in a line: Cytotoxicity against human SK-MEL-2 cells by SRB method.
The test system of the next experiment is XF498. The experiment in a line: Cytotoxicity against human XF498 cells by SRB method.
The test system of another experiment is HCT-15. The experiment in a line: Cytotoxicity against human HCT15 cells by SRB method.

With `C=C[C@](C)(O)CC[C@H]1C(=C)[C@H](O)C[C@H]2C(C)(C)CCC[C@]12C`, the EC50 in the experiment on A549, in the experiment with SK-OV-3, with SK-MEL-2, in the experiment on XF498 and in the experiment on HCT-15 was above 5 µg/mL each time.

For the compound `COc1cccc2c1C(=O)c1c(O)c3c(c(O)c1C2=O)C[C@@](O)(C(=O)CO)C[C@@H]3O[C@H]1C[C@H](N)[C@H](O)[C@H](C)O1` [DOXORUBICIN], the EC50 in the experiment on A549 was found to be 0.012 µg/mL (≈ 0.0221 µM); in the experiment on SK-OV-3, 0.12 µg/mL (≈ 0.221 µM); with SK-MEL-2, 0.003 µg/mL (≈ 0.00552 µM); with XF498, 0.01 µg/mL (≈ 0.0184 µM); in the experiment with HCT-15, 0.35 µg/mL (≈ 0.644 µM).

Take `C=C[C@@](C)(CC[C@H]1C(C)=CC[C@H]2C(C)(C)CCC[C@]12C)O[C@@H]1O[C@@H](C)[C@@H](O)[C@H](O)[C@H]1O`: the EC50 in the experiment on A549 was 3.9 µg/mL (≈ 8.93 µM); in the experiment with SK-OV-3, 5.7 µg/mL (≈ 13.1 µM); in the experiment with SK-MEL-2 it was 4.2 µg/mL (≈ 9.62 µM); with XF498, 8.9 µg/mL (≈ 20.4 µM); with HCT-15, 3.2 µg/mL (≈ 7.33 µM).

Take `COc1cc([C@@H]2c3cc4c(cc3[C@@H](O[C@@H]3O[C@@H]5CO[C@@H](C)O[C@H]5[C@H](O)[C@H]3O)[C@H]3COC(=O)[C@H]23)OCO4)cc(OC)c1O` [ETOPOSIDE]: the EC50 is 1.5 µg/mL (≈ 2.55 µM) in the experiment on A549; 2.7 µg/mL (≈ 4.59 µM) in the experiment on SK-OV-3; 0.08 µg/mL (≈ 0.136 µM) with SK-MEL-2; 2.6 µg/mL (≈ 4.42 µM) in the experiment on XF498; 2.2 µg/mL (≈ 3.74 µM) in the experiment on HCT-15.

For the compound `C=C[C@@]1(C)CC[C@H]2[C@]3(C)CCC[C@@](C)(C(=O)O)[C@H]3CC[C@]2(C)O1`, the EC50 with A549, with SK-OV-3, in the experiment on SK-MEL-2, in the experiment on XF498 and in the experiment with HCT-15 was above 5 µg/mL throughout.

For the compound `C=C[C@@](C)(CC[C@H]1C(C)=CC[C@H]2C(C)(C)CCC[C@]12C)O[C@@H]1O[C@H](C)[C@H](O)[C@H](OC(C)=O)[C@H]1O`, the EC50 stood at 3.6 µg/mL (≈ 7.52 µM) with A549; 3.8 µg/mL (≈ 7.94 µM) in the experiment with SK-OV-3; 3.5 µg/mL (≈ 7.31 µM) with SK-MEL-2; 5.1 µg/mL (≈ 10.7 µM) in the experiment with XF498; 3.8 µg/mL (≈ 7.94 µM) in the experiment on HCT-15.

On to `C=C[C@](C)(O)CC[C@H]1C(C)=CC[C@H]2C(C)(C)CCC[C@]12C`, for which the EC50 in the experiment with A549 was determined as 2.4 µg/mL (≈ 8.26 µM); in the experiment on SK-OV-3, 8.7 µg/mL (≈ 29.9 µM); in the experiment on SK-MEL-2, 4.4 µg/mL (≈ 15.1 µM); in the experiment with XF498, 9.5 µg/mL (≈ 32.7 µM); with HCT-15 it was 9.1 µg/mL (≈ 31.3 µM).

For the compound `C=C[C@@](C)(CC[C@H]1C(C)=CC[C@H]2C(C)(C)CCC[C@]12C)O[C@@H]1O[C@H](C)[C@H](O)[C@H](O)[C@H]1O`, the EC50 in the experiment on A549 was 3.5 µg/mL (≈ 8.02 µM); with SK-OV-3 it was 3.6 µg/mL (≈ 8.24 µM); with SK-MEL-2, 3.5 µg/mL (≈ 8.02 µM); in the experiment on XF498, 4.2 µg/mL (≈ 9.62 µM); in the experiment on HCT-15 it was 3.9 µg/mL (≈ 8.93 µM).

In the case of `C=C[C@@](C)(CC[C@H]1C(C)=CC[C@H]2C(C)(C)CCC[C@]12C)O[C@@H]1O[C@H](C)[C@H](OC(C)=O)[C@H](O)[C@H]1O`, the EC50 turned out to be 3.9 µg/mL (≈ 8.15 µM) in the experiment on A549; 5.8 µg/mL (≈ 12.1 µM) with SK-OV-3; 3.4 µg/mL (≈ 7.1 µM) in the experiment on SK-MEL-2; 8.9 µg/mL (≈ 18.6 µM) in the experiment on XF498; 4.1 µg/mL (≈ 8.57 µM) with HCT-15.

In the case of `C=C[C@@](C)(O)CC[C@@H]1[C@@]2(C)CCCC(C)(C)[C@@H]2CC[C@@]1(C)O`, the EC50 in the experiment with A549, in the experiment on SK-OV-3, with SK-MEL-2, in the experiment on XF498 and in the experiment with HCT-15 was above 5 µg/mL throughout.

As for `C=C[C@@](C)(CC[C@H]1C(C)=CC[C@H]2C(C)(C)CCC[C@]12C)O[C@@H]1O[C@@H](C)[C@@H](OC(C)=O)[C@H](O)[C@H]1O`, the EC50 in the experiment with A549 was found to be 3.2 µg/mL (≈ 6.69 µM); with SK-OV-3, 3.4 µg/mL (≈ 7.1 µM); with SK-MEL-2 it was 3.5 µg/mL (≈ 7.31 µM); with XF498, 3.8 µg/mL (≈ 7.94 µM); with HCT-15 it was 3.1 µg/mL (≈ 6.48 µM).

For the compound `C=C[C@@](C)(CC[C@@H]1[C@@]2(C)CCCC(C)(C)[C@@H]2CC[C@@]1(C)O)O[C@H]1O[C@H](C)[C@H](O)[C@@H](O)[C@@H]1O`, the EC50 in the experiment on A549, with SK-OV-3, in the experiment on SK-MEL-2, in the experiment with XF498 and with HCT-15 was above 5 µg/mL in each case.

Consider `C=C[C@@](C)(CC[C@@H]1[C@@]2(C)CCCC(C)(C)[C@@H]2CC[C@@]1(C)O)O[C@@H]1O[C@H](C)[C@H](O)[C@H](O)[C@H]1O`, for which the EC50 in the experiment with A549, with SK-OV-3, in the experiment with SK-MEL-2, in the experiment with XF498 and in the experiment on HCT-15 was above 5 µg/mL each time.
